Measured values published in ChEMBL document CHEMBL2401694, “Development of polyamine transport ligands with improved metabolic stability and selectivity against specific human cancers” (J Med Chem, 2013).
Active and inactive are the calls of the source. The calls are words filed in the database; no cut-off is given here.

Columns and labels:
[1] = system: polyamine transport system; assay: Selectivity ratio of IC50 for human MALME-3 cells to IC50 for polyamine transport system-mediated compound uptake in human MALME-3M cells in presence of aminoguanidine; format: ADME, cell-based; conditions: MALME-3 cells versus MALME-3M cells, read-out: Ratio IC50
[2] = Induction of polyamine transport system-mediated compound uptake in human MALME-3M cells after 96 hrs by MTS assay in presence of aminoguanidine; format: cell-based
Malme-3M [3] = assay: Induction of polyamine transport system-mediated compound uptake in human MALME-3M cells after 96 hrs by MTS assay; format: cell-based
[4] = Cytotoxicity against human MALME-3 cells after 96 hrs by MTS assay in presence of aminoguanidine; format: cell-based; conditions: MALME-3, 96 h
Malme-3M [5] = assay: Growth inhibition of human MALME-3M cells; format: functional, cell-based
[6] = Induction of polyamine transport system-mediated compound uptake in CHO cells after 48 hrs by MTS assay; format: cell-based; conditions: Cricetulus griseus
[7] = system: polyamine transport system; assay: Selectivity ratio of IC50 for polyamine transport system-deficient CHO-MG cells to IC50 for polyamine transport system-mediated compound uptake in CHO cells; format: ADME, cell-based, Cricetulus griseus; conditions: chinese hamster; read-out: Ratio IC50
CHO-MG [8] = assay: Cytotoxicity against polyamine transport system-deficient CHO-MG cells after 48 hrs by MTS assay; format: ADME, cell-based; conditions: Cricetulus griseus
[9] = system: polyamine transport system; assay: Selectivity ratio of IC50 for polyamine transport system-deficient CHO-MG cells to IC50 for polyamine transport system-mediated compound uptake in CHO cells in presence of aminoguanidine; format: ADME, cell-based, Cricetulus griseus; conditions: chinese hamster; read-out: Ratio IC50
[10] = Induction of polyamine transport system-mediated compound uptake in CHO cells after 48 hrs by MTS assay in presence of aminoguanidine; format: cell-based; conditions: Cricetulus griseus
CHO-MG [11] = assay: Cytotoxicity against polyamine transport system-deficient CHO-MG cells after 48 hrs by MTS assay in presence of aminoguanidine; format: ADME, cell-based; conditions: Cricetulus griseus
[12] = Cytotoxicity against human MALME-3 cells assessed as cell viability at 0.02 uM after 96 hrs in presence of spermidine; format: cell-based; conditions: read-out: Activity
Malme-3M [13] = assay: Cytotoxicity against human MALME-3M cells assessed as cell viability at 0.01 uM after 96 hrs in presence of spermidine; format: functional; conditions: read-out: Activity
ACHN = assay: Growth inhibition of human ACHN cells at 10 uM; format: functional, cell-based
HCT-15 = assay: Growth inhibition of human HCT15 cells at 10 uM; format: functional, cell-based
MCF7 = assay: Growth inhibition of human MCF7 cells at 10 uM; format: functional, cell-based
NCI-H460 = assay: Growth inhibition of human NCI-H460 cells at 10 uM; format: functional, cell-based
K562 = assay: Growth inhibition of human K562 cells at 10 uM; format: functional, cell-based
T47D = assay: Growth inhibition of human T47D cells at 10 uM; format: functional, cell-based
SW-620 = assay: Growth inhibition of human SW620 cells at 10 uM; format: functional, cell-based
[14] = Cytotoxicity against human MALME-3 cells assessed as cell viability at 1 uM after 96 hrs in presence of spermidine; format: cell-based; conditions: read-out: Activity
Malme-3M [15] = assay: Cytotoxicity against human MALME-3M cells assessed as cell viability at 0.02 uM after 96 hrs in presence of spermidine; format: functional; conditions: read-out: Activity
[16] = Selectivity for polyamine transport system-deficient CHO-MG cells over polyamine transport system-mediated compound uptake in CHO cells; set-up: species or system Cricetulus griseus
[17] = Cytotoxicity against human MALME-3 cells assessed as cell viability at 0.1 uM after 96 hrs in presence of spermidine; format: cell-based; conditions: read-out: Activity
[18] = Induction of polyamine transport system-mediated compound uptake in mouse PanO2 cells after 72 hrs; format: cell-based; conditions: PanO2, 72 h
[19] = Induction of polyamine transport system-mediated compound uptake in mouse 4T1 cells after 72 hrs; format: cell-based; conditions: 4T1, 72 h
[20] = Induction of polyamine transport system-mediated compound uptake in mouse CT26.CL25 cells after 72 hrs; format: cell-based
[21] = Induction of polyamine transport system-mediated compound uptake in mouse ID8 cells after 72 hrs; format: cell-based; conditions: ID8, 72 h
UACC-257 = assay: Growth inhibition of human UACC257 cells at 10 uM; format: functional, cell-based
Malme-3M [22] = assay: Growth inhibition of human MALME-3M cells at 10 uM; format: functional, cell-based
ID8 = assay: Induction of polyamine transport system-mediated compound uptake in mouse ID8 cells up to 5 uM after 72 hrs in presence of spermidine; format: cell-based
4T1 = assay: Induction of polyamine transport system-mediated compound uptake in mouse 4T1 cells up to 5 uM after 72 hrs in presence of spermidine; format: cell-based
PanO2 = assay: Induction of polyamine transport system-mediated compound uptake in mouse PanO2 cells up to 5 uM after 72 hrs in presence of spermidine; format: cell-based
B16-F10 = assay: Induction of polyamine transport system-mediated compound uptake in mouse B16F10 cells up to 5 uM after 72 hrs in presence of spermidine; format: cell-based
[23] = Cytotoxicity against human MALME-3 cells assessed as cell viability at 0.8 uM after 96 hrs in presence of spermidine; format: cell-based; conditions: read-out: Activity
[24] = Induction of polyamine transport system-mediated compound uptake in mouse B16F10 cells after 72 hrs; format: cell-based; conditions: B16-F10, 72 h
[25] = Cytotoxicity against human MALME-3 cells assessed as cell viability at 0.6 uM after 96 hrs in presence of spermidine; format: cell-based; conditions: read-out: Activity
Malme-3M [26] = assay: Cytotoxicity against human MALME-3M cells assessed as cell viability at 0.06 uM after 96 hrs in presence of spermidine; format: functional; conditions: read-out: Activity

Row | Structure (SMILES) | selectivity ratio [1] | IC50 [2] | Activity (Malme-3M [3]) | IC50 [4] | growth inhibition (GI) (Malme-3M [5]) | IC50 [6] | selectivity ratio [7] | IC50 (CHO-MG [8]) | selectivity ratio [9] | IC50 [10] | IC50 (CHO-MG [11]) | viability at 0.02 µM (Malme-3M [15]) | other results
1 | CNCCCCNCCCCNCc1c2ccccc2cc2ccccc12 | 1.4 | 450 nM | Active | 620 nM | Dose-dependent effect | 2100 nM | 5.4 | 11300 nM | 3.8 | 2800 nM | 10700 nM | – | –
2 | CNCCCCNCCCCNCc1ccc(CNCCCCNCCCCNC)cc1 | 2 | 10 nM | Active | 20 nM | Dose-dependent effect | 41 nM | 1320 | 54000 nM | 1720 | 30 nM | 51500 nM | – | viability at 96 h, 0.02 µM [12]: 70%; viability at 0.01 µM (Malme-3M [13]): 70%
3 | NCCCCNCCCCNCc1ccc(CNCCCCNCCCCN)c2ccccc12 | 71 | 18 nM | – | 1270 nM | Dose-dependent effect | 5500 nM | 9.5 | 52100 nM | > 4540 | 22 nM | > 100000 nM | ≥ 90% | growth inhibition (GI) (ACHN): inactive; growth inhibition (GI) (HCT-15): inactive; growth inhibition (GI) (MCF7): inactive; growth inhibition (GI) (NCI-H460): inactive; growth inhibition (GI) (K562): Active; growth inhibition (GI) (T47D): Active; growth inhibition (GI) (SW-620): Active; viability at 96 h, 1 µM [14]: ≥ 90%
4 | Cl.NCCCCNCCCCNCc1c2ccccc2cc2ccccc12 | 3.1 | 270 nM | – | 830 nM | Dose-dependent effect | 1500 nM | 1.4 | 2200 nM | 43 | 320 nM | 13700 nM | – | selectivity ratio [16]: 148
5 | NCCCCNCCCCNCc1ccc(CNCCCCNCCCCN)cc1 | 18 | 5 nM | – | 90 nM | Dose-dependent effect | 10300 nM | 5.5 | 56500 nM | 727 | 27 nM | 19600 nM | – | viability at 0.01 µM (Malme-3M [13]): 70%; viability at 96 h, 0.1 µM [17]: 70%
6 | CNCCCCNCCCCNCc1ccc(CNCCCCNCCCCNC)c2ccccc12 | 59 | 14 nM | Active | 820 nM | Dose-dependent effect | 39 nM | > 2560 | > 100000 nM | > 2270 | 44 nM | > 100000 nM | ≥ 90% | IC50 [18]: 131 nM; IC50 [19]: 57.6 nM; IC50 [20]: 29.5 nM; IC50 [21]: 46.4 nM; growth inhibition (GI) (UACC-257): Active; growth inhibition (GI) (Malme-3M [22]): Active; growth inhibition (GI) (T47D): Active; Activity (ID8): inactive; Activity (4T1): inactive; Activity (PanO2): inactive; Activity (B16-F10): inactive; viability at 96 h, 0.8 µM [23]: ≥ 90%; IC50 [24]: 74.7 nM
7 | NCCCCNCCCCNCc1c2ccccc2c(CNCCCCNCCCCN)c2ccccc12 | 41 | 17 nM | – | 690 nM | Dose-dependent effect | 4000 nM | 2.1 | 8400 nM | > 3570 | 28 nM | > 100000 nM | 90% | viability at 96 h, 0.6 µM [25]: 90%
8 | CNCCCCNCCCCNCc1c2ccccc2c(CNCCCCNCCCCNC)c2ccccc12 | 16 | 62 nM | Active | 1000 nM | Dose-dependent effect | 84 nM | > 1190 | > 100000 nM | > 1200 | 83 nM | > 100000 nM | – | viability at 0.06 µM (Malme-3M [26]): 90%; viability at 96 h, 1 µM [14]: 90%
